In article PMC555771 (Journal of Biomedicine and Biotechnology, 2004):

Columns and labels:
[1] = test system: cynomolgus monkeys fed the HCHF diet; type: in vivo, cynomolgus monkey; conditions: single iv injection 20 mg/kg, at day 7, n=2, P<.05
[2] = test system: baboons fed the HCHF diet; type: in vivo, baboon
[3] = test system: baboons; conditions: in vivo
[4] = test system: CETP; conditions: ref [10]; cited from earlier work
[5] = test system: baboons; assay: IgG levels, body weights and food consumption in baboons; conditions: during the study (data not shown)

Question: With “truncated apoC-I peptide: 38 amino acid N-terminal fragment of apoC-I peptide based on human sequences, made by solid-phase synthesis; CETP inhibitor (TPDVSSALDKLKEFGNTLEDKARELISRIKQSELSAKM; UniProt P02654 27-64, looked up, fragment)” as the substance, how does the “maximum decrease in plasma LDL cholesterol levels” value [1] read?
Answer: Its value is 26.5 ± 4.5%.

Question: And the “day by which VLDL + LDL cholesterol reached baseline values” ([2]; intravenous, 10, 15, 20 mg/kg on days 0, 7, 14, n=3)?
Answer: Its value is no more than 25 days.

Question: And the “maximum increase in HDL cholesterol concentration” value ([2]; intravenous, 10, 15, 20 mg/kg on days 0, 7, 14, n=3, P<.05)?
Answer: The value was 20%.

Question: And the “change in plasma triglycerides” value ([2]; intravenous, 10, 15, 20 mg/kg on days 0, 7, 14, until day 19, except at day 4, n=3)?
Answer: The value was “decreased”.

Question: And the “day on which VLDL + LDL cholesterol returned to baseline values” ([2]; subcutaneous, 10, 15, 20 mg/kg on days 0, 7, 14, n=3)?
Answer: Its value is 28 days.

Question: What about the “maximum decrease in VLDL + LDL cholesterol” value ([2]; subcutaneous, 10, 15, 20 mg/kg on days 0, 7, 14, on day 19, n=3) of the same substance?
Answer: The value was 20%.

Question: What about the “maximum increase in HDL cholesterol” value ([2]; subcutaneous, 10, 15, 20 mg/kg on days 0, 7, 14, on day 23, n=3) of the same substance?
Answer: Its value is 20%.

Question: What about the “plasma IgG levels, change in response to peptide infusion” value [3] of the same substance?
Answer: Its value is “did not change significantly”.

Question: And the “CETP activity in the plasma of low-HDL baboons” value [4]?
Answer: Its value is “inhibited CETP activity”.

Question: And the body weights [5]?
Answer: Its body weights is “no change”.

Question: What about the food consumption [5] of the same substance?
Answer: The food consumption was “no change”.
